The results in this text go back to patent US10774087B2, “Sulfonamide derivative having coumarin skeleton” (Daiichi Sankyo Company, Limited, priority 2016, dated 2020).

Assay [1] has as its system MDA-MB-231 luc cells. In words: Growth inhibition test using MDA-MB-231 luc cells. Format: cell-based, human.
In assay [2] the target is T1, recombinant MTHFD2 protein (Homo sapiens, UniProt P13995).
T1 construct: containing recombinant MTHFD2 protein
T1 sequence (P13995 36-350): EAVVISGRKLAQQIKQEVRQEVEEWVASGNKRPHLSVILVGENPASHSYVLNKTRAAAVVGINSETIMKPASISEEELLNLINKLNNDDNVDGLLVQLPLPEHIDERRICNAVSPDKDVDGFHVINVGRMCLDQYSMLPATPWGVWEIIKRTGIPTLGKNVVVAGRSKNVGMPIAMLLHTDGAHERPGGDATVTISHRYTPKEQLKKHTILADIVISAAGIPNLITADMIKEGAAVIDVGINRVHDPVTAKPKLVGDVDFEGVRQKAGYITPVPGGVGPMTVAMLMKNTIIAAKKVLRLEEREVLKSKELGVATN
In words: MTHFD2 dehydrogenase assay. The class given is biochemical.

Assay [3] concerns the target T2, recombinant MTHFD1 protein (dehydrogenase domain, alone) (Homo sapiens, UniProt P11586).
T2 construct: recombinant MTHFD1 protein (dehydrogenase domain, alone)
T2 sequence (P11586 2-291 limits assumed): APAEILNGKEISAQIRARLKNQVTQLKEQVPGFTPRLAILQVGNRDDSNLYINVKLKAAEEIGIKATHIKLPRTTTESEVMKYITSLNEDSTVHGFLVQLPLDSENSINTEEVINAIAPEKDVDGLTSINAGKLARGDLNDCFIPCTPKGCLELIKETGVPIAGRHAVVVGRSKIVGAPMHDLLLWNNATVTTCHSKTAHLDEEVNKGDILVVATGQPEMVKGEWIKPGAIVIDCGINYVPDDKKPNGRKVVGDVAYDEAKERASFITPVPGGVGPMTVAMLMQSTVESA
In words: MTHFD1 dehydrogenase assay. The class given is biochemical.

The mark [4] stands for this setting: 200 μM NAD, room temperature 30 minutes, absorbance 355 nm.
[5] abbreviates: human breast cancer MDA-MB-231 luc, Day 3, cell-titer Glo, Day 0 value subtracted, read-out: GI50.
Setting [6] is: 165.4 μM NADP, room temperature 30 minutes, absorbance 355 nm.

Where a name gives a salt, the structure may show the parent alone. Read-outs that look alike come from different tables or passages of the source.

For orientation: GI50 means the concentration giving 50% growth inhibition. Broadly, the IC50 is the point on the concentration scale where inhibition reaches its midpoint. As for `Cc1c(N2CCN(C)CC2)ccc2c3c(c(=O)oc12)CN(C(=O)c1ccc(NS(C)(=O)=O)c(Cl)c1)CC3` [Example 1, N-(2-chloro-4-{[7-methyl-8-(4-methylpiperazin-1-yl)-5-oxo-1,5-dihydro-2H-chromeno[3,4-c]pyridin-3(4H)-yl]carbonyl}phenyl)methanesulfonamide], growth in assay [1] (Homo sapiens, MDA-MB-231) was halved (GI50) at 940 nM. Also, the 50% inhibitory concentration (IC50) in assay [2] (setting [4]) stood at 48 nM.
`Cc1c(N2CCN(C)CC2)ccc2c3c(c(=O)oc12)CN(C(=O)c1ccc(NS(=O)(=O)C2CC2)c(Cl)c1)CC3` [Example 2, N-(2-Chloro-4-{[7-methyl-8-(4-methylpiperazin-1-yl)-5-oxo-1,5-dihydro-2H-chromeno[3,4-c]pyridin-3(4H)-yl]carbonyl}phenyl)cyclopropanesulfonamide]: the GI50 in assay [1] (setting [5]) is 1100 nM. The IC50 came to 28 nM in assay [2] (setting [4]) and 2200 nM in assay [3] (setting [6]).
As for `Cc1c(N2CCN(C)CC2)ccc2c3c(c(=O)oc12)CN(C(=O)c1ccc(NS(C)(=O)=O)c(OC(F)(F)F)c1)CC3` [Example 3, N-[4-{[7-Methyl-8-(4-methylpiperazin-1-yl)-5-oxo-1,5-dihydro-2H-chromeno[3,4-c]pyridin-3(4H)-yl]carbonyl}-2-(trifluoromethoxy)phenyl]methanesulfonamide], it took 380 nM to inhibit growth in assay [1] (Homo sapiens, MDA-MB-231) by half (GI50). Further, in assay [2] (setting [4]), the IC50 turned out to be 21 nM.
As to `Cc1c(N2CCN(C)[C@@H](C)C2)ccc2c3c(c(=O)oc12)CN(C(=O)c1ccc(NS(C)(=O)=O)c(Cl)c1)CC3` [Example 4, N-[2-Chloro-4-({8-[(3S)-3,4-dimethylpiperazin-1-yl]-7-methyl-5-oxo-1,5-dihydro-2H-chromeno[3,4-c]pyridin-3(4H)-yl}carbonyl)phenyl]methanesulfonamide], the GI50 in assay [1] (Homo sapiens, MDA-MB-231) is 200 nM. Moreover, in assay [2] (setting [4]), the IC50 was 9.3 nM.
Compound `Cc1c(N2CCN(C)[C@@H](C)C2)ccc2c3c(c(=O)oc12)CN(C(=O)c1ccc(NS(C)(=O)=O)c(OC(F)(F)F)c1)CC3` [Example 5, N-[4-({8-[(3S)-3,4-Dimethylpiperazin-1-yl]-7-methyl-5-oxo-1,5-dihydro-2H-chromeno[3,4-c]pyridin-3(4H)-yl}carbonyl)-2-(trifluoromethoxy)phenyl]methanesulfonamide] showed a GI50 in assay [1] (Homo sapiens, MDA-MB-231) of 140 nM.
`Cc1c(N2CCN(C)[C@@H](C)C2)ccc2c3c(c(=O)oc12)CN(C(=O)c1ccc(NS(C)(=O)=O)c(C(F)(F)F)c1)CC3` [Example 6, N-[4-({8-[(3S)-3,4-Dimethylpiperazin-1-yl]-7-methyl-5-oxo-1,5-dihydro-2H-chromeno[3,4-c]pyridin-3(4H)-yl}carbonyl)-2-(trifluoromethyl)phenyl]methanesulfonamide]: the 50% growth inhibitory concentration (GI50) in assay [1] (Homo sapiens, MDA-MB-231) was found to be 210 nM. Moreover, the IC50 was found to be 6.4 nM in assay [2] and 1500 nM in assay [3].
For `Cc1c(N2CCN(C)[C@@H](C)C2)cc(C)c2c3c(c(=O)oc12)CN(C(=O)c1ccc(NS(C)(=O)=O)c(Cl)c1)CC3` [Example 7, N-[2-Chloro-4-({8-[(3S)-3,4-dimethylpiperazin-1-yl]-7,10-dimethyl-5-oxo-1,5-dihydro-2H-chromeno[3,4-c]pyridin-3(4H)-yl}carbonyl)phenyl]methanesulfonamide] the same measures were 100 nM, 4.4 nM and 560 nM.
The like results for `Cc1c(N2CCN(C)[C@@H](C)C2)cc(C)c2c3c(c(=O)oc12)CN(C(=O)c1ccc(NS(C)(=O)=O)c(OC(F)(F)F)c1)CC3` [Example 8, N-[4-({8-[(3S)-3,4-Dimethylpiperazin-1-yl]-7,10-dimethyl-5-oxo-1,5-dihydro-2H-chromeno[3,4-c]pyridin-3(4H)-yl}carbonyl)-2-(trifluoromethoxy)phenyl]methanesulfonamide] were, in that order, 45 nM, 2.6 nM and 200 nM.
The like results for `CCS(=O)(=O)Nc1ccc(C(=O)N2CCc3c(c(=O)oc4c(C)c(N5CCN(C)[C@@H](C)C5)ccc34)C2)cc1OC(F)(F)F` [Example 9, N-[4-({8-[(3S)-3,4-Dimethylpiperazin-1-yl]-7-methyl-5-oxo-1,5-dihydro-2H-chromeno[3,4-c]pyridin-3(4H)-yl}carbonyl)-2-(trifluoromethoxy)phenyl]ethanesulfonamide] were, in that order, 120 nM, 4.7 nM and 400 nM.
`CCS(=O)(=O)Nc1ccc(C(=O)N2CCc3c(c(=O)oc4c(C)c(N5CCN(C)[C@@H](C)C5)cc(C)c34)C2)cc1OC(F)(F)F` [Example 10, N-[4-({8-[(3S)-3,4-Dimethylpiperazin-1-yl]-7,10-dimethyl-5-oxo-1,5-dihydro-2H-chromeno[3,4-c]pyridin-3(4H)-yl}carbonyl)-2-(trifluoromethoxy)phenyl]ethanesulfonamide]: the GI50 in assay [1] (setting [5]) is 17 nM. Also, the IC50 was 2.7 nM in assay [2] (setting [4]) and 220 nM in assay [3] (setting [6]).
For the compound `CC[C@H]1CN(c2ccc3c4c(c(=O)oc3c2C)CN(C(=O)c2ccc(NS(C)(=O)=O)c(OC(F)(F)F)c2)CC4)CCN1C` [Example 11, N-[4-({8-[(3S)-3-Ethyl-4-methylpiperazin-1-yl]-7-methyl-5-oxo-1,5-dihydro-2H-chromeno[3,4-c]pyridin-3(4H)-yl}carbonyl)-2-(trifluoromethoxy)phenyl]methanesulfonamide], in assay [1] (Homo sapiens, MDA-MB-231), it took 120 nM to inhibit growth by half (GI50). In addition, the IC50 in assay [2] came out at 5.1 nM; in assay [3] it was 360 nM.
For `Cc1c(N2CCN(C)C(C)(C)C2)ccc2c3c(c(=O)oc12)CN(C(=O)c1ccc(NS(C)(=O)=O)c(OC(F)(F)F)c1)CC3` [Example 12, N-[4-{[7-Methyl-5-oxo-8-(3,3,4-trimethylpiperazin-1-yl)-1,5-dihydro-2H-chromeno[3,4-c]pyridin-3(4H)-yl]carbonyl}-2-(trifluoromethoxy)phenyl]methanesulfonamide] the same measures were 66 nM, 75 nM and 710 nM.
`Cc1c(N2CCN[C@@H](C)C2)ccc2c3c(c(=O)oc12)CN(C(=O)c1ccc(NS(C)(=O)=O)c(OC(F)(F)F)c1)CC3` [Example 13, N-[4-({7-Methyl-8-[(3S)-3-methylpiperazin-1-yl]-5-oxo-1,5-dihydro-2H-chromeno[3,4-c]pyridin-3(4H)-yl}carbonyl)-2-(trifluoromethoxy)phenyl]methanesulfonamide hydrochloride] had a concentration for 50% growth inhibition (GI50) in assay [1] (Homo sapiens, MDA-MB-231) of 260 nM. Also, the values for the IC50 in assay [2] (setting [4]) and in assay [3] (setting [6]) were 7.8 nM and 900 nM, respectively.
For `Cc1c(N2C[C@@H](C)N(C)[C@@H](C)C2)ccc2c3c(c(=O)oc12)CN(C(=O)c1ccc(NS(C)(=O)=O)c(Cl)c1)CC3` [Example 14, N-[2-Chloro-4-({7-methyl-5-oxo-8-[(3R,5S)-3,4,5-trimethylpiperazin-1-yl]-1,5-dihydro-2H-chromeno[3,4-c]pyridin-3(4H)-yl}carbonyl)phenyl]methanesulfonamide], halving of growth in assay [1] (Homo sapiens, MDA-MB-231) (GI50) required 780 nM. Moreover, the IC50 in assay [2] (setting [4]) was 37 nM.
